Test results from US9346761B2, “Arginine methyltransferase inhibitors and uses thereof” (Epizyme, Inc., priority 2013, dated 2016).
Where two headings read alike, the source gives them in different places.

Experiments:
[1] = test system: mono-methyl arginine in RKO cells; assay: RKO methylation assay, In Cell Western for mono-methyl arginine and DNA content; assay type: cell-based; conditions: Homo sapiens
[2] = biological target: T1, Full-length human PRMT8 (Homo sapiens, UniProt Q9NR22); assay: PRMT8 biochemical assay (3H-SAM Flashplate, peptide substrate)
T1 construct: Full-length human PRMT8 (NM_019854.4) isoform 1 transcript clone; made in house
T1 sequence (Q9NR22 whole entry, canonical isoform): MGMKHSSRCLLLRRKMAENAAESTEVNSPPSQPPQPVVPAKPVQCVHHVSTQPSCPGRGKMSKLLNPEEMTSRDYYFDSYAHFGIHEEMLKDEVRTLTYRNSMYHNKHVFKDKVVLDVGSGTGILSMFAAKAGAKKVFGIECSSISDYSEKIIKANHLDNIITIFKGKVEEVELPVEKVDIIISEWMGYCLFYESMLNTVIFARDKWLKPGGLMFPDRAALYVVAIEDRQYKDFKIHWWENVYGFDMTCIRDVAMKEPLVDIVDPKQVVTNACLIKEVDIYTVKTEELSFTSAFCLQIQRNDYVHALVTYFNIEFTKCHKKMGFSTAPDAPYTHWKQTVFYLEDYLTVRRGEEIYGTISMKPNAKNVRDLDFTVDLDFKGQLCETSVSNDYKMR
Source text: General Materials. S-adenosylmethionine (SAM), S-adenosylhomocysteine (SAH), bicine, Tween20, dimethylsulfoxide (DMSO), bovine skin gelatin (BSG), isopropyl-β-D-thiogalactopyranoside (IPTG), and Tris(2-carboxyethyl)phosphine hydrochloride solution (TCEP) were purchased from Sigma-Aldrich at the highest level of purity possible. ^3H-SAM was purchase from American Radiolabeled Chemicals with a specific activity of 80 Ci/mmol. 384-well streptavidin Flashplates were purchased from PerkinElmer.
Substrates. Peptide representative of human histone H4 residues 31-45 was synthesized with an N-terminal linker-affinity tag motif and a C-terminal amide cap by 21st Century Biochemicals.
Protein Expression. E. coli (BL21(DE3) Gold, Stratagene) made competent by the CaCl2 method were transformed with the PRMT8 construct and ampicillin selection. Protein over-expression was accomplished by growing the PRMT8 expressing E. coli clone and inducing expression with 0.3 mM IPTG at 16° C. The culture was grown for 12 hours, harvested by centrifugation, and stored at −80° C. for purification.
Protein Purification. […] GST-tagged PRMT8 was eluted with 50 mM Tris, 2 mM glutathione, pH 7.8. Pooled fractions were cleaved by thrombin (10 U) and dialysed in buffer A. GST was removed by reloading the cleaved protein sample onto glutathione sepharose column and PRMT8 was collected in the flow-through fractions. PRMT8 was purified further by ceramic hydroxyapatite chromatography. The column was washed with 50 mM phosphate buffer, 100 mM NaCl, 5% glycerol, 5 mM β-mercaptoethanol, pH 7.8 and PRMT8 was eluted by 100 mM phosphate in the same buffer. Protein was concentrated and buffer was exchanged to 50 mM Tris, 300 mM NaCl, 10% glycerol, 5 mM β-mercaptoethanol, pH 7.8 by ultrafiltration.
General Procedure for PRMT8 Enzyme Assays on Peptide Substrates. The assays were all performed in a buffer consisting of 20 mM Bicine (pH=7.6), 1 mM TCEP, 0.005% BSG, and 0.002% Tween 20, prepared on the day of use. […] DMSO (1 ul) was added to Columns 11, 12, 23, 24, rows A-H for the maximum signal control and 1 ul of SAH, a known product and inhibitor of PRMT8, was added to columns 11, 12, 23, 24, rows I-P for the minimum signal control. A cocktail (40 ul) containing the PRMT8 enzyme was added by Multidrop Combi (Thermo-Fisher). The compounds were allowed to incubate with PRMT8 for 30 min at room temperature, then a cocktail (10 ul) containing ^3H-SAM and peptide was added to initiate the reaction (final volume=51 ul). […] The assays were stopped by the addition of non-radiolabeled SAM (10 ul) to a final concentration of 400 uM, which dilutes the ^3H-SAM to a level where its incorporation into the peptide substrate is no longer detectable. 50 ul of the reaction in the 384-well polypropylene plate was then transferred to a 384-well Flashplate and the biotinylated peptides were allowed to bind to the streptavidin surface for at least 1 hour before being washed once with 0.1% Tween20 in a Biotek ELx405 plate washer. The plates were then read in a PerkinElmer TopCount plate reader to measure the quantity of ^3H-labeled peptide bound to the Flashplate surface, measured as disintegrations per minute (dpm) or alternatively, referred to as counts per minute (cpm).
Where dpm=disintegrations per minute, cmpd=signal in assay well, and min and max are the respective minimum and maximum signal controls.
Where top and bottom are the normally allowed to float, but may be fixed at 100 or 0 respectively in a 3-parameter fit. The Hill Coefficient normally allowed to float but may also be fixed at 1 in a 3-parameter fit. Y is the % inhibition and X is the compound concentration.

[3] = In Cell Western, RKO cells, 72 hours, percent activation of mono-methyl arginine signal, read-out: EC30

Compound	EC30 [1, 3] [µM]	IC50 [2] [nM]	EC30 ([1]; RKO, 72 h) [µM]
COCCn1cc(CN(C)CCN)c(-c2ccc(F)cc2)n1 [Compound 5]	> 12	3010 to 10000	–
COCCn1ncc(CN(C)CCN)c1-c1ccc(F)cc1 [Compound 6]	> 12	–	–
CCn1ncc(CN(C)CCNC)c1-c1ccc(F)cc1 [Compound 7]	3.01 to 12	3010 to 10000	–
CCn1cc(CN(C)CCNC)c(-c2ccc(F)cc2)n1 [Compound 8]	> 12	3010 to 10000	–
CN(CCN)Cc1c[nH]nc1-c1ccc(Cl)cc1 [Compound 95]	< 3	101 to 1000	–
CN(CCN)Cc1c[nH]nc1-c1ccc(OCC(F)(F)F)cc1 [Compound 96]	< 3	101 to 1000	–
CC(C)Oc1ccc(-c2n[nH]cc2CN(C)CCN)cc1F [Compound 97]	–	< 100	< 3
CN(CCN)Cc1c[nH]nc1-c1ccc(C2CCOCC2)cc1 [Compound 98]	< 3	101 to 1000	–
CN(CCN)Cc1c[nH]nc1-c1ccc(F)cc1F [Compound 99]	3.01 to 12	1010 to 3000	–
CN(CCN)Cc1n[nH]cc1-c1ccc(C#N)cc1 [Compound 100]	< 3	101 to 1000	–
CC(C)c1ccc(-c2c[nH]nc2CN(C)CCN)cc1 [Compound 101]	–	101 to 1000	3.01 to 12
CN(CCN)Cc1n[nH]cc1-c1ccc(Cl)cc1 [Compound 102]	< 3	101 to 1000	–
CN(CCN)Cc1n[nH]cc1-c1ccc(C(F)(F)F)cc1 [Compound 103]	3.01 to 12	101 to 1000	–
CN(CCN)Cc1n[nH]cc1-c1ccc(C2CC2)cc1 [Compound 104]	3.01 to 12	101 to 1000	–
CN(CCN)Cc1n[nH]cc1-c1ccc(OC(F)(F)F)cc1 [Compound 105]	< 3	101 to 1000	–
CN(CCN)Cc1c[nH]nc1-c1cc(F)ccc1Cl [Compound 106]	> 12	3010 to 10000	–
COc1ccc(-c2n[nH]cc2CN(C)CCN)c(F)c1 [Compound 107]	> 12	101 to 1000	–
Cc1ccc(-c2n[nH]cc2CN(C)CCN)c(F)c1 [Compound 108]	> 12	1010 to 3000	–
COc1ccccc1-c1n[nH]cc1CN(C)CCN [Compound 109]	> 12	1010 to 3000	–
Cc1cc(C#N)ccc1-c1n[nH]cc1CN(C)CCN [Compound 110]	> 12	101 to 1000	–
CN(CCN)Cc1c[nH]nc1-c1cc(F)cc(F)c1 [Compound 111]	> 12	101 to 1000	–
CC(=O)c1cccc(-c2n[nH]cc2CN(C)CCN)c1 [Compound 112]	> 12	101 to 1000	–
CN(CCN)Cc1cnn(CC(O)CO)c1-c1ccc(F)cc1 (centres unmarked) [Compound 113]	> 12	3010 to 10000	–
CN(CCN)Cc1c[nH]nc1-c1ccc(OC2CC2)cc1 [Compound 114]	< 3	< 100	–
CC(O)c1ccc(-c2n[nH]cc2CN(C)CCN)cc1 (centres unmarked) [Compound 115]	> 12	1010 to 3000	–
CN(CCN)Cc1c[nH]nc1-c1ccc(C2CC2)cc1 [Compound 116]	< 3	101 to 1000	–
CN(CCN)Cc1c[nH]nc1-c1ccc(C(F)(F)F)c(Cl)c1 [Compound 117]	< 3	< 100	–
CN(CCN)Cc1c[nH]nc1-c1ccc(Cl)c(F)c1 [Compound 118]	< 3	101 to 1000	–
CN(CCN)Cc1n[nH]cc1-c1ccc(OC2CC2)cc1 [Compound 119]	3.01 to 12	101 to 1000	–
CN(CCN)Cc1c[nH]nc1-c1cc(F)cc(Cl)c1 [Compound 121]	< 3	101 to 1000	–
